Source: patent US20230263907A1, “PREPARATION OF SOLID CYCLODEXTRIN COMPLEXES FOR OPHTHALMIC ACTIVE PHARMACEUTICAL INGREDIENT DELIVERY” (OCULIS SA, priority 2020, published 2023)
In brackets after ≈: the same amount, converted by molar mass. Marks after values point to notes of the source that are not given here. Blank lines part the entries; values can stand above or below the compound they belong to.

Tests used:
EGFR = EGFR (Homo sapiens, UniProt P00533); conditions: vendor data; cited from earlier work
Sequence of EGFR (P00533 25-1210, species assumed): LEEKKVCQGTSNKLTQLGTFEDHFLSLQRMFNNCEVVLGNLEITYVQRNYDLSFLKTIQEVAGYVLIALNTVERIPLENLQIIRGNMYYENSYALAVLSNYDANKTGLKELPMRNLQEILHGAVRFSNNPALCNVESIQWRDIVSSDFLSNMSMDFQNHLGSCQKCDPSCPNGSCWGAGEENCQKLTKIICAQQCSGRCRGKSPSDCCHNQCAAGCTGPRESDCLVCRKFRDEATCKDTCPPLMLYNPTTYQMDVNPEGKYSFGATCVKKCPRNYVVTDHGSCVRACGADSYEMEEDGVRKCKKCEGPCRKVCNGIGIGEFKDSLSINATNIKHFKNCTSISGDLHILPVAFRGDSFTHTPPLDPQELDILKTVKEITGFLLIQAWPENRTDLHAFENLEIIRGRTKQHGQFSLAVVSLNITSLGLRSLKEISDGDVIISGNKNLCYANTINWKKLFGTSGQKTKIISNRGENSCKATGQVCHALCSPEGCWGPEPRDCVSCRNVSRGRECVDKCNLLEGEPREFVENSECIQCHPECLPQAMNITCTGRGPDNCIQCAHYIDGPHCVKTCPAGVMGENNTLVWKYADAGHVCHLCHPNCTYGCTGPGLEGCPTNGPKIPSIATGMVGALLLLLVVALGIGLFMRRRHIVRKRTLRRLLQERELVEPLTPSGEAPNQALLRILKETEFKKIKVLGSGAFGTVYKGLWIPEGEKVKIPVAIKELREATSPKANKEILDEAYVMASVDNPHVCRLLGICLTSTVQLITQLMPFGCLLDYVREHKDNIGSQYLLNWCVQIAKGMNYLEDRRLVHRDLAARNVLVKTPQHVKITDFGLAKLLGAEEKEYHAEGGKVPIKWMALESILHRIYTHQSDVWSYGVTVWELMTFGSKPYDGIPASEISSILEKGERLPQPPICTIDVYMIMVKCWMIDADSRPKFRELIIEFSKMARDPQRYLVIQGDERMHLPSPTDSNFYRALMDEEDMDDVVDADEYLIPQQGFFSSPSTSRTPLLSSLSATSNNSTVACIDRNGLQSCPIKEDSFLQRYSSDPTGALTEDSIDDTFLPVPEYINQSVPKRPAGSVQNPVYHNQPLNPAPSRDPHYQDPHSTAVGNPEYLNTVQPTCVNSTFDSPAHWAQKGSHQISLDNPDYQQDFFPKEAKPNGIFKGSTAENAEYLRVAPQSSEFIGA

[1] = Dissolution test of eye drop formulations in water; type: physicochemical; conditions: formulation AF1, 450 times dilution in water, maximum at about 10 minutes
Description: In order to keep high concentrations of dissolved kinase inhibitors in the aqueous tear fluid the dissolution of the kinase inhibitor must proceed very quickly upon media dilution. The test formulation was above DF3 and the reference formulation was AF1 comprising acrizanib (Table 4 below). A dissolution test was performed by direct adding of a formulation aliquot into defined volume of water under constant stirring speed. The formulation/water ratio (final dilution) selection was based on the quantification limit of the used HPLC method and on the acrizanib solubility. The final dilution of 450 times was selected. At certain time after adding the formulation to water a sample of about 1 ml was taken from a stirring media, filtered through 0.45 µm filter and transferred to an HPLC vial for analysis.

VEGFR2 [2] = target: T1, VEGFR2 (Homo sapiens, UniProt P35968); assay: VEGFR2 IC50 values obtained from Selleckchem, Tocris Bioscience and TargetMol; type: biochemical; conditions: ratio of vendor IC50 values
T1 sequence (P35968 20-1356, species assumed): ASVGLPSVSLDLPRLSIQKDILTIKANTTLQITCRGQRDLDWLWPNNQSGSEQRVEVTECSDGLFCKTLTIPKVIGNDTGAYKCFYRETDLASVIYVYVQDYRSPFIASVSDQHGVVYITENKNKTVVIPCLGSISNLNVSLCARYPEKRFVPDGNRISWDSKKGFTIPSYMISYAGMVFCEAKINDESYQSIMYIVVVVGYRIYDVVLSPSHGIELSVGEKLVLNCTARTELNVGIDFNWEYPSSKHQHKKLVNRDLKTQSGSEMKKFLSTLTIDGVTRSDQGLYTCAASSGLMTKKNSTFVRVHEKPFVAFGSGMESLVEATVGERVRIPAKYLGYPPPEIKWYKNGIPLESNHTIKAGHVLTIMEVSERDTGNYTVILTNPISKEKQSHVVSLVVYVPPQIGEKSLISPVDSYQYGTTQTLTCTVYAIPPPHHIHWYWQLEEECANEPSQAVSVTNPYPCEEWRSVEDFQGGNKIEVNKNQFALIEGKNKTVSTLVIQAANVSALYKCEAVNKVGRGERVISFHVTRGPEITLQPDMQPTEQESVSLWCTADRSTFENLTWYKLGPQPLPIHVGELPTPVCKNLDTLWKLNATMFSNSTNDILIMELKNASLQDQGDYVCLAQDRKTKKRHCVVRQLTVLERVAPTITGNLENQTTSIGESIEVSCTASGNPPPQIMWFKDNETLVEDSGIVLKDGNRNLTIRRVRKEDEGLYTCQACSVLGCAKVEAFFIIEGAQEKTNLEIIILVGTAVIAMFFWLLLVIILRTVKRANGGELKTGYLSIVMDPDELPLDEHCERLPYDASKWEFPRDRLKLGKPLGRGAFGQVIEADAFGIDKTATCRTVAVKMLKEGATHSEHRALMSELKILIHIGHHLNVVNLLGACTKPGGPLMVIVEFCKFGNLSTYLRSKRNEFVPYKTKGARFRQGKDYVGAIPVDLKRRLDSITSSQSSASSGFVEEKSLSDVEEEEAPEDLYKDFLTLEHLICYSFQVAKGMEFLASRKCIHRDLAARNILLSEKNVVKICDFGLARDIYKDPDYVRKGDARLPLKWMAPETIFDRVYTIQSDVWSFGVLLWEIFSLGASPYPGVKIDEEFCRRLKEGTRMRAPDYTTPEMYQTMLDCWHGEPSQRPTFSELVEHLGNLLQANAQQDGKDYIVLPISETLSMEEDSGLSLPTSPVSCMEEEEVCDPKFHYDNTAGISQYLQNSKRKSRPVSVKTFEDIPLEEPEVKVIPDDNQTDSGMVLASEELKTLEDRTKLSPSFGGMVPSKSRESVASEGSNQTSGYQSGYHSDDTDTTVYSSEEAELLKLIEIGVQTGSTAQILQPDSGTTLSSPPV

[3] = target: VEGFR2 (C-terminal fragment, amino acids D807-V1356) (Homo sapiens, UniProt P35968)
Sequence of VEGFR2 (C-terminal fragment, amino acids D807-V1356) (P35968 807-1356): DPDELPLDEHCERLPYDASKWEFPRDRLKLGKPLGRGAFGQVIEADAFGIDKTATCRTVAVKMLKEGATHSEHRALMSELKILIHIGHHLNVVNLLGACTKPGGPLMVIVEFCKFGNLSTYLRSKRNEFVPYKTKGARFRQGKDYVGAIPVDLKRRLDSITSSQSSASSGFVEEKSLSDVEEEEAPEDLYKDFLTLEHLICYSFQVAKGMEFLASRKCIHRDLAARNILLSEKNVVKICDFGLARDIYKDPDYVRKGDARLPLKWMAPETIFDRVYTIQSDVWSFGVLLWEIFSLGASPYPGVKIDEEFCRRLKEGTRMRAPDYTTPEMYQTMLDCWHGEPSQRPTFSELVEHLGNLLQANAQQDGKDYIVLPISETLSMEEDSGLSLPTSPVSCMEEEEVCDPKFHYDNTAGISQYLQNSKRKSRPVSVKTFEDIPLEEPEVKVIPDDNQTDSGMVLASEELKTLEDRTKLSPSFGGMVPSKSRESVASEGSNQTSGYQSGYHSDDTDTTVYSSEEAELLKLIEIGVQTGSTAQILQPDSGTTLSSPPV

[4] = 7 days
VEGFR2 [5] = assay: PamChip kinase activity profiling in cornea tissue lysates; set-up: VEGFR2 inhibition, Cornea: dose or concentration left out as unconfirmed; conditions: rabbit cornea lysate
[6] = target: T2, EGFR (C-terminal fragment, amino acids H672-A1210) (Homo sapiens, UniProt P00533); assay: PamChip tyrosine kinase peptide array assay, recombinant EGFR; type: biochemical
T2 construct: EGFR (C-terminal fragment, amino acids H672-A1210); purchased Proqinase (Freiburg Germany)
T2 sequence (P00533 672-1210): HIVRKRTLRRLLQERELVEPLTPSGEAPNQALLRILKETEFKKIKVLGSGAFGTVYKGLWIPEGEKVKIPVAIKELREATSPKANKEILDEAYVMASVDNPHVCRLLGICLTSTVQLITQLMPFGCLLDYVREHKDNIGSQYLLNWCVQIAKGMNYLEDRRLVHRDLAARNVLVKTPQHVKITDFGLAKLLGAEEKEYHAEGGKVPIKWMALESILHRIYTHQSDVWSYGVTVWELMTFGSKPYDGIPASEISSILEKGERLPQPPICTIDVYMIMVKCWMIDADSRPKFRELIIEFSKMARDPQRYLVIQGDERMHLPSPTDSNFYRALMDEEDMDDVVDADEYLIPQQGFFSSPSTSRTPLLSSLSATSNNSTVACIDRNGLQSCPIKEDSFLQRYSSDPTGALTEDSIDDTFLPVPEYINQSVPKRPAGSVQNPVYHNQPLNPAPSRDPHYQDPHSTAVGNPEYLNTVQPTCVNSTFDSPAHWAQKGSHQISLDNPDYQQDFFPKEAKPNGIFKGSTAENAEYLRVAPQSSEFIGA

VEGFR2 [7] = assay: PamChip kinase activity profiling in retina tissue lysates; set-up: VEGFR2 inhibition, Retina: dose or concentration left out as unconfirmed; conditions: rabbit retina lysate
[8] = Solid and dissolved drug fraction and particle size of eye drop microsuspensions; type: physicochemical
[9] = Experimental aqueous solubility; type: physicochemical
Text: Further improvement of the complexation efficacy is obtained by addition of EDTA and polymers like tyloxapol.

VEGFR2 [10] = target: T1, VEGFR2; conditions: vendor data; cited from earlier work
[11] = cited from earlier work
[12] = Phase solubility screening of orantinib with gamma-cyclodextrin at pH 6; type: physicochemical; conditions: 22.5 °C, thermodynamic from solid
Description: Phase solubility screening with gamma-cyclodextrin at pH 6. […] The suspensions formed were autoclaved for 15 minutes at 121° C.

[13] = Stability of orantinib in an autoclave; type: physicochemical
Text: Each vial was then split up into 2 vials. One vial of each set was autoclaved and all samples analyzed by HPLC.

[14] = cited from earlier work; for solubility in pure water: 25° C.
[15] = Solubility of axitinib free base with various acids and γ-cyclodextrin
[16] = γ-cyclodextrin eye drop formulations

EGFR/VEGFR2 ratio (VEGFR2 [2]): 10,000
Compound: COc1cc2c(Oc3ccc4[nH]c(C)cc4c3F)ccnc2cc1OCC1(N)CC1 [Anlotinib]
IC50 (EGFR): 2 µM

EGFR/VEGFR2 ratio (VEGFR2 [2]): 3333
Compound: O=C(Nc1cccc(C(F)(F)F)c1)c1cccc2cc(Oc3cc(CO)ncn3)ccc12 [BFH772]
IC50 (EGFR): 10 µM

diameter of dissolved drug/γ-cyclodextrin complex nanoparticles [8, 16]: below 200 nm
diameter of solid drug/γ-cyclodextrin complex microparticles [8, 16]: less than 10 µm
fraction of drug dissolved (free drug, complexes or complex nanoparticles) [8, 16]: about 13%
fraction of drug in solid drug/γ-cyclodextrin complex microparticles ([8]; γ-cyclodextrin eye drop formulations, from concentration before and after filtration): About 87%
CE (complexation efficacy) [4]: 0.0578
Compound: COc1cc2c(Oc3ccc4[nH]c(C)cc4c3F)ncnc2cc1OCCCN1CCCC1 [Cediranib]

S in water ([9]; pH 6.5): 0.3 ^b mg/mL
increase of drug that could be dissolved and suspended ([8]; lactate salt with EDTA and surface active polymers, versus free base): ~10 fold
Compound: CC(O)C(=O)O.CC(O)C(=O)O.CN1CCN(c2ccc3nc(-c4c(N)c5c(F)cccc5[nH]c4=O)[nH]c3c2)CC1 [Dovitinib dilactate]

EGFR/VEGFR2 ratio (VEGFR2 [2]): 857
Compound: CNC(=O)c1c(C)oc2cc(Oc3ncnc4cc(OC)c(OC)cc34)ccc12 [Fruquintinib]
IC50 (EGFR): 30 µM

EGFR/VEGFR2 ratio (VEGFR2 [2]): 2500
Compound: COc1cc2nccc(Oc3ccc(NC(=O)Nc4ccc(F)cc4F)c(F)c3)c2cc1OC [Ki8751]
IC50 (EGFR): 10 µM
IC50 (VEGFR2 [10]): 0.004 µM

CE (complexation efficacy) [4]: 0.0052
Compound: CC1(C)CNc2cc(NC(=O)c3cccnc3NCc3ccncc3)ccc21 [Motesanib]

EGFR/VEGFR2 ratio (VEGFR2 [2]): 1000
Compound: O=C(Nc1ccc(OC(F)(F)F)cc1)c1sccc1NCc1ccnc2ccccc12 [OSI-930]
IC50 (EGFR): 10 µM

CE (complexation efficacy) [4]: 0.00002
Compound: Cc1ccc(Nc2nccc(N(C)c3ccc4c(C)n(C)nc4c3)n2)cc1S(N)(=O)=O [Pazopanib]

CE (complexation efficacy) [4]: 0.00002
Compound: CNC(=O)c1cc(Oc2ccc(NC(=O)Nc3ccc(Cl)c(C(F)(F)F)c3)c(F)c2)ccn1 [Regorafenib]
IC50 (EGFR): 1 µM

γCD in solution ([15]; 10 mg/ml Axi + 50 mg/ml γCD + Acetic acid (1:1 molar), pH 3.5): 24 mg/mL
γCD in solution ([15]; 10 mg/ml Axi + 50 mg/ml γCD + Ascorbic acid (1:1 molar), pH 3.1): 27 mg/mL
γCD in solution ([15]; 10 mg/ml Axi + 50 mg/ml γCD + Hydrochloric acid (1:1 molar), pH 3.2): 21 mg/mL
γCD in solution ([15]; 10 mg/ml Axi + 50 mg/ml γCD + Lactic acid (1:1 molar), pH 2.8): 24 mg/mL
γCD in solution ([15]; 10 mg/ml Axi + 50 mg/ml γCD + Maleic acid (1:1 molar), pH 2.3): 25 mg/mL
γCD in solution ([15]; 10 mg/ml Axi + 50 mg/ml γCD + Malic acid (1:1 molar), pH 3.0): 24 mg/mL
γCD in solution ([15]; 10 mg/ml Axi + 50 mg/ml γCD + Tartaric acid (1:1 molar), pH 2.7): 22 mg/mL
γCD in solution ([15]; 10 mg/ml Axi + 50 mg/ml γCD, no acid, pH 9.1): 22 mg/mL
Compound: OC[C@H]1O[C@@H]2O[C@H]3[C@H](O)[C@@H](O)[C@@H](O[C@H]4[C@H](O)[C@@H](O)[C@@H](O[C@H]5[C@H](O)[C@@H](O)[C@@H](O[C@H]6[C@H](O)[C@@H](O)[C@@H](O[C@H]7[C@H](O)[C@@H](O)[C@@H](O[C@H]8[C@H](O)[C@@H](O)[C@@H](O[C@H]9[C@H](O)[C@@H](O)[C@@H](O[C@H]1[C@H](O)[C@H]2O)O[C@@H]9CO)O[C@@H]8CO)O[C@@H]7CO)O[C@@H]6CO)O[C@@H]5CO)O[C@@H]4CO)O[C@@H]3CO [γ-cyclodextrin]
solubility in pure water [14]: 249200 ± 200 µg/mL (≈ 192000 µM)
solubility in aqueous 3% (w/v) γ-cyclodextrin suspension saturated with hydrocortisone [14]: 13000 µg/mL
solubility in pure water at room temperature [14]: about 250 mg/ml

The next lines start with the compound.

Compound: CNCc1cc(Oc2ccc3c(ccn3C(=O)Nc3cc(C(F)(F)F)n(C)n3)c2)ncn1 [Acrizanib]
IC50 (EGFR): 1 µM
fraction of drug dissolved, maximum [1]: about 7.5%

Compound: O=C(Nc1cc(Oc2cc(F)c(NC(=O)C3(C(=O)Nc4ccc(F)cc4)CC3)cc2F)ccn1)C1CC1 [Altiratinib]
IC50 (EGFR): 3.3 µM

Compound: CNC(=O)c1ccccc1Sc1ccc2c(/C=C/c3ccccn3)n[nH]c2c1 [Axitinib]
VEGFR inhibition in the recombinant assays [3]: potent inhibitors for VEGFR
CE (complexation efficacy) [4]: 0.0002

Compound: COc1cc2nccc(Oc3ccc(NC(=O)C4(C(=O)Nc5ccc(F)cc5)CC4)cc3)c2cc1OC [Cabozantinib]
VEGFR2 inhibition, Cornea (VEGFR2 [5]): 90.52%
EGFR inhibition in the recombinant assays [6]: do not inhibit EGFR
VEGFR2 inhibition, Retina (VEGFR2 [7]): 74.82%

Compound: O=C(O)CC(O)C(=O)O (centres unmarked) [Malic]
pKa (first or only value) [11]: 3.51
pKa (second value) [11]: 5.03

Compound: COC(=O)c1ccc2c(c1)NC(=O)/C2=C(\Nc1ccc(N(C)C(=O)CN2CCN(C)CC2)cc1)c1ccccc1 [Nintedanib]
VEGFR2 inhibition, Cornea (VEGFR2 [5]): 95.92%
VEGFR2 potency ranking in cornea (VEGFR2 [5]): most potent VEGFR2 inhibitor
VEGFR2 inhibition, Retina (VEGFR2 [7]): 94.33%
VEGFR2 potency ranking in retina (VEGFR2 [7]): most potent VEGFR2 inhibitor

Compound: Cc1[nH]c(/C=C2\C(=O)Nc3ccccc32)c(C)c1CCC(=O)O [Orantinib]
solubility at 4 h ([12]; water with 0 % (w/v) γ-cyclodextrin, water, 0 % (w/v) γCD, pH 6.3): 4 µg/mL (≈ 12.9 µM)
solubility at 4 h ([12]; water with 5 % (w/v) γ-cyclodextrin, aqueous with cosolvent or surfactant or cyclodextrin, 5 % (w/v) γCD, pH 6.1): 14 µg/mL (≈ 45.1 µM)
solubility at 4 h ([12]; water with 10 % (w/v) γ-cyclodextrin, aqueous with cosolvent or surfactant or cyclodextrin, 10 % (w/v) γCD, pH 6.2): 17 µg/mL (≈ 54.8 µM)
solubility at 4 h ([12]; water with 15 % (w/v) γ-cyclodextrin, aqueous with cosolvent or surfactant or cyclodextrin, 15 % (w/v) γCD, pH 6.0): 12 µg/mL (≈ 38.7 µM)
concentration before autoclave ([13]; sample 1-29, MQ water with NaOH, pH 7.4, filtered 0.45 micrometer): 60 µq/ml
concentration after autoclave ([13]; sample 1-29, pH 7.4): 64 µg/mL
concentration before autoclave ([13]; sample 2-29, MQ water with NaOH, pH 7.6, filtered 0.45 micrometer): 182 µq/ml
concentration after autoclave ([13]; sample 2-29, pH 7.6): 176 µg/mL
concentration before autoclave ([13]; sample 3-29, MQ water with NaOH, pH 7.8, filtered 0.45 micrometer): 321 µq/ml
concentration after autoclave ([13]; sample 3-29, pH 7.8): 316 µg/mL

Compound: COCCNCc1ccc(-c2cc3nccc(Oc4ccc(NC(=O)C5(C(=O)Nc6ccc(F)cc6)CC5)cc4F)c3s2)nc1 [Sitravatinib]
IC50 (EGFR): 5 µM

Compound: Cc1cc(F)c(Nc2ncnc3cc(OCc4ccccc4)ccc23)cc1O [ZM 323881, 5-((7-Benzyloxyquinazolin-4-yl)amino)-4-fluoro-2-methylphenol]
IC50 (EGFR): 50 µM
EGFR/VEGFR2 ratio (VEGFR2 [2]): 25,000

Compound: OC[C@H]1O[C@@H]2O[C@H]3[C@H](O)[C@@H](O)[C@@H](O[C@H]4[C@H](O)[C@@H](O)[C@@H](O[C@H]5[C@H](O)[C@@H](O)[C@@H](O[C@H]6[C@H](O)[C@@H](O)[C@@H](O[C@H]7[C@H](O)[C@@H](O)[C@@H](O[C@H]1[C@H](O)[C@H]2O)O[C@@H]7CO)O[C@@H]6CO)O[C@@H]5CO)O[C@@H]4CO)O[C@@H]3CO [α-cyclodextrin]
solubility in pure water [14]: 129500 ± 700 µg/mL (≈ 133000 µM)

Compound: Cediranib maleate
solubility compared with the free base [9]: significant greater solubility than the free base
